From paper PMC8963254, “Effects of Lysine N-ζ-Methylation in Ultrashort Tetrabasic Lipopeptides (UTBLPs) on the Potentiation of Rifampicin, Novobiocin, and Niclosamide in Gram-Negative Bacteria” (Antibiotics, 2022)
Read-outs that look alike come from different tables or passages of the source.

Tests used:
[1] = tested on: P. aeruginosa PAO1; assay type: cell-based, Pseudomonas aeruginosa; details: PAO1, 18 h
Method: (§1) The in vitro antibacterial activity of the UTBLPs was assessed against wild-type and clinically isolated bacterial strains. To obtain the MIC of the compounds, the microbroth dilution susceptibility assay was performed according to the Clinical and Laboratory Standards Institute (CLSI, Wayne, PA, USA) guidelines and as previously described. Briefly, the compounds at varying concentrations were incubated with bacterial inoculum (5 × 10^5 CFU/mL final concentration) at 37 °C for 18 h. Growth in the form of turbidity was confirmed using an EMax Plus microplate reader (Molecular Devices, San Jose, CA, USA) at 590 nm.

[2] = tested on: E. faecalis ATCC 29212; assay type: cell-based, Enterococcus faecalis; details: ATCC 29212, 18 h
Method: as §1

[3] = tested on: E. faecium ATCC 27270; assay type: cell-based, Enterococcus faecium; details: ATCC 27270, 18 h
Method: as §1

[4] = tested on: P. aeruginosa PA259-96196; assay: microbe, parasite or virus in culture; assay type: cell-based, Pseudomonas aeruginosa; details: PA259-96196, 18 h
Outline: (§2)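 Turbidity at 590 nm defined growth, from which the MIC was taken. Cultures at a final density of 5 × 10^5 CFU/mL were exposed to a range of compound levels at 37 °C for 18 h in a CLSI-based microdilution format.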

[5] = tested on: P. aeruginosa PA262-101856; assay: microbe, parasite or virus in culture; assay type: cell-based, Pseudomonas aeruginosa; details: PA262-101856, 18 h
Outline: as §2

[6] = tested on: A. baumannii AB027; assay: microbe, parasite or virus in culture; assay type: cell-based, Acinetobacter baumannii; details: AB027, 18 h
Outline: as §2

[7] = tested on: A. baumannii AB92247; assay: microbe, parasite or virus in culture; assay type: cell-based, Acinetobacter baumannii; details: AB92247, 18 h
Outline: as §2

[8] = tested on: E. cloacae 118564; assay: microbe, parasite or virus in culture; assay type: cell-based, Enterobacter cloacae; details: 118564, 18 h
Outline: as §2

[9] = tested on: P. aeruginosa PA259-96196; assay type: cell-based, Pseudomonas aeruginosa; details: for MICUTBLP: UTBLP alone
Outline: (§3)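 Values derive from a two-agent checkerboard with an 18 h, 37 °C incubation. FICI cut-offs: ≤0.5 synergy, 0.5–4 additive, >4 antagonism.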

[10] = tested on: P. aeruginosa PA262-101856; assay type: cell-based, Pseudomonas aeruginosa; details: for MICUTBLP: UTBLP alone
Outline: as §3

[11] = tested on: P. aeruginosa PAO1; assay type: cell-based, Pseudomonas aeruginosa; details: for MICUTBLP: UTBLP alone
Outline: as §3

[12] = tested on: A. baumannii ATCC 17978; assay type: cell-based, Acinetobacter baumannii; details: for MICUTBLP: UTBLP alone
Outline: as §3

[13] = tested on: E. cloacae 118564; assay type: cell-based, Enterobacter cloacae; details: for MICUTBLP: UTBLP alone
Outline: as §3

[14] = tested on: K. pneumoniae 113250; assay type: cell-based, Klebsiella pneumoniae; details: for MICUTBLP: UTBLP alone
Outline: as §3

[15] = tested on: MRSA ATCC 33592; assay type: cell-based, Staphylococcus aureus
Outline: as §3

[16] = tested on: S. aureus ATCC 29213; assay type: cell-based, Staphylococcus aureus
Outline: as §3

[17] = tested on: MRSE 61589; assay type: cell-based, Staphylococcus epidermidis
Outline: as §3

[18] = tested on: MSSE 81388; assay type: cell-based, Staphylococcus epidermidis
Outline: as §3

[19] = UTBLP in combination with novobiocin
[20] = UTBLP in combination with rifampicin
[21] = novobiocin in combination with the UTBLP
[22] = rifampicin in combination with the UTBLP
[23] = UTBLP in combination with chloramphenicol
[24] = UTBLP in combination with niclosamide
[25] = chloramphenicol in combination with the UTBLP
[26] = niclosamide in combination with the UTBLP
[27] = UTBLP alone, plate with chloramphenicol

CCCCCCCC(=O)N[C@@H](CCCCN(C)C)C(=O)NCCCN(CCCNC(=O)[C@H](CCCCN(C)C)NC(=O)CCCCCCC)CC(=O)N[C@@H](CCCCN(C)C)C(N)=O [UTBLP 3]
MIC [1]: >128 µg/mL
MIC [2]: >128 µg/mL
MIC [3]: >128 µg/mL
MIC [4]: > 128 µg/mL
MIC [5]: > 128 µg/mL
MIC [6]: > 128 µg/mL
MIC [7]: > 128 µg/mL
MIC [8]: > 128 µg/mL
Interpretation ([9]; UTBLP + novobiocin): Additive (0.5 < x ≤ 4 is additive)
Interpretation ([9]; UTBLP + rifampicin): Additive (0.5 < x ≤ 4 is additive)
MICUTBLP ([9]; plate with novobiocin): > 128 µg/mL
MICUTBLP ([9]; plate with rifampicin): > 128 µg/mL
MICUTBLP [MICcombo] [9, 19]: 0.25 µg/mL
MICUTBLP [MICcombo] [9, 20]: 16 µg/mL
MICantibiotic [MICcombo] [9, 21]: 2048 µg/mL
MICantibiotic [MICcombo] [9, 22]: 16 µg/mL
Interpretation ([10]; UTBLP + novobiocin): Additive (0.5 < x ≤ 4 is additive)
Interpretation ([10]; UTBLP + rifampicin): Additive (0.5 < x ≤ 4 is additive)
MICUTBLP ([10]; plate with novobiocin): > 128 µg/mL
MICUTBLP ([10]; plate with rifampicin): > 128 µg/mL
MICUTBLP [MICcombo] [10, 19]: 8 µg/mL
MICUTBLP [MICcombo] [10, 20]: 0.25 µg/mL
MICantibiotic [MICcombo] [10, 21]: 1024 µg/mL
MICantibiotic [MICcombo] [10, 22]: 512 µg/mL
Interpretation ([11]; UTBLP + chloramphenicol): Additive (0.5 < x ≤ 4 is additive)
Interpretation ([11]; UTBLP + niclosamide): Additive (0.5 < x ≤ 4 is additive)
Interpretation ([11]; UTBLP + novobiocin): Additive (0.5 < x ≤ 4 is additive)
Interpretation ([11]; UTBLP + rifampicin): Additive (0.5 < x ≤ 4 is additive)
MICUTBLP ([11]; plate with chloramphenicol): > 128 µg/mL
MICUTBLP ([11]; plate with niclosamide): > 128 µg/mL
MICUTBLP ([11]; plate with novobiocin): > 128 µg/mL
MICUTBLP ([11]; plate with rifampicin): > 128 µg/mL
MICUTBLP [MICcombo] [11, 23]: 8 µg/mL
MICUTBLP [MICcombo] [11, 24]: 0.25 µg/mL
MICUTBLP [MICcombo] [11, 19]: 16 µg/mL
MICUTBLP [MICcombo] [11, 20]: 0.25 µg/mL
MICantibiotic [MICcombo] [11, 25]: 8 µg/mL
MICantibiotic [MICcombo] [11, 26]: 1024 µg/mL
MICantibiotic [MICcombo] [11, 21]: 512 µg/mL
MICantibiotic [MICcombo] [11, 22]: 16 µg/mL
Interpretation ([12]; UTBLP + chloramphenicol): Additive (0.5 < x ≤ 4 is additive)
Interpretation ([12]; UTBLP + niclosamide): Additive (0.5 < x ≤ 4 is additive)
Interpretation ([12]; UTBLP + novobiocin): Synergy (FICI ≤ 0.5 is synergistic)
Interpretation ([12]; UTBLP + rifampicin): Synergy (FICI ≤ 0.5 is synergistic)
MICUTBLP ([12]; plate with chloramphenicol): > 128 µg/mL
MICUTBLP ([12]; plate with niclosamide): > 128 µg/mL
MICUTBLP ([12]; plate with novobiocin): > 128 µg/mL
MICUTBLP ([12]; plate with rifampicin): > 128 µg/mL
MICUTBLP [MICcombo] [12, 23]: 16 µg/mL
MICUTBLP [MICcombo] [12, 24]: 0.25 µg/mL
MICUTBLP [MICcombo] [12, 19]: 8 µg/mL
MICUTBLP [MICcombo] [12, 20]: 8 µg/mL
MICantibiotic [MICcombo] [12, 25]: 64 µg/mL
MICantibiotic [MICcombo] [12, 26]: 1024 µg/mL
MICantibiotic [MICcombo] [12, 21]: 1 µg/mL
MICantibiotic [MICcombo] [12, 22]: 0.5 µg/mL
Interpretation ([13]; UTBLP + novobiocin): Synergy (FICI ≤ 0.5 is synergistic)
Interpretation ([13]; UTBLP + rifampicin): Synergy (FICI ≤ 0.5 is synergistic)
MICUTBLP ([13]; plate with novobiocin): > 128 µg/mL
MICUTBLP ([13]; plate with rifampicin): > 128 µg/mL
MICUTBLP [MICcombo] [13, 19]: 16 µg/mL
MICUTBLP [MICcombo] [13, 20]: 8 µg/mL
MICantibiotic [MICcombo] [13, 21]: 16 µg/mL
MICantibiotic [MICcombo] [13, 22]: 2 µg/mL
Interpretation ([14]; UTBLP + novobiocin): Synergy (FICI ≤ 0.5 is synergistic)
Interpretation ([14]; UTBLP + rifampicin): Synergy (FICI ≤ 0.5 is synergistic)
MICUTBLP ([14]; plate with novobiocin): > 128 µg/mL
MICUTBLP ([14]; plate with rifampicin): > 128 µg/mL
MICUTBLP [MICcombo] [14, 19]: 16 µg/mL
MICUTBLP [MICcombo] [14, 20]: 16 µg/mL
MICantibiotic [MICcombo] [14, 21]: 32 µg/mL
MICantibiotic [MICcombo] [14, 22]: 4 µg/mL
Interpretation ([15]; UTBLP + chloramphenicol): Additive (0.5 < x ≤ 4 is additive)
MICUTBLP [15, 27]: > 128 µg/mL
MICUTBLP [MICcombo] [15, 23]: 0.25 µg/mL
MICchloramphenicol [MICcombo] [15, 25]: 64 µg/mL
MICUTBLP [16, 27]: > 128 µg/mL
MICUTBLP [MICcombo] [16, 23]: 0.25 µg/mL
MICchloramphenicol [MICcombo] [16, 25]: 16 µg/mL
Interpretation ([17]; UTBLP + chloramphenicol): Additive (0.5 < x ≤ 4 is additive)
MICUTBLP [17, 27]: > 128 µg/mL
MICUTBLP [MICcombo] [17, 23]: 0.25 µg/mL
MICchloramphenicol [MICcombo] [17, 25]: 16 µg/mL
Interpretation ([18]; UTBLP + chloramphenicol): Additive (0.5 < x ≤ 4 is additive)
MICUTBLP [18, 27]: > 128 µg/mL
MICUTBLP [MICcombo] [18, 23]: 0.25 µg/mL
MICchloramphenicol [MICcombo] [18, 25]: 8 µg/mL
